≈ marks a conversion by molar mass, not a printed value. Calls of active or inactive are those of the source. The rule behind the calls is not given here.
What was measured:
Staphylococcus aureus = test: Antimicrobial activity against Staphylococcus aureus at 50 to 100 ug/disk; format: functional, organism-based
Pseudomonas aeruginosa = test: Antimicrobial activity against Pseudomonas aeruginosa at 50 to 100 ug/disk; format: functional, organism-based
Escherichia coli = test: Antimicrobial activity against Escherichia coli at 50 to 100 ug/disk; format: functional, organism-based
MCF7 = test: Cytotoxicity against human MCF7 cells; format: functional, cell-based
CCRF-CEM = test: Cytotoxicity against human CCRF-CEM cells; format: functional, cell-based
HCT-116 = test: Cytotoxicity against human HCT116 cells; format: functional, cell-based

SMILES	Activity (Staphylococcus aureus)	Activity (Pseudomonas aeruginosa)	Activity (Escherichia coli)	IC50 (MCF7)	IC50 (CCRF-CEM)	IC50 (HCT-116)
COC1=C(Br)[C@H](O)[C@@]2(C=C1Br)CC(C(=O)NCCCOc1c(Br)cc(C(O)CNC(C)=O)cc1Br)=NO2 (some centres not stated) [APLYSINAMISINE III]	Active	Active	Active	30 µg/mL (≈ 38.7 µM)	6 µg/mL (≈ 7.74 µM)	10 µg/mL (≈ 12.9 µM)
COC1=C(Br)[C@H](O)[C@@]2(C=C1Br)CC(C(=O)NCCCCCNC(=N)N)=NO2 [APLYSINAMISINE II]	Active	Active	Active	> 50 µg/mL	> 50 µg/mL	10 µg/mL (≈ 19.6 µM)
COC1=C(Br)[C@H](O)[C@@]2(C=C1Br)CC(C(=O)NC/C=C\c1c[nH]c(N)n1)=NO2 [APLYSINAMISINE I]	Active	Active	Active	> 50 µg/mL	> 50 µg/mL	

From ChEMBL document CHEMBL1148168, “The structures of aplysinamisines I, II, and III; new bromotyrosine-derived alkaloids from the Caribbean sponge Aplysina cauliformis” (J Nat Prod, 1993)
